Drawing on PMC5564600 (Oncotarget, 2017), this text covers remaining activity for four compounds.

SMILES strings stand for the structures.

Holding throughout (assay): biochemical
What all share (format): binding

The target in assay [1] is T1, panel of 442 kinases (Homo sapiens, UniProt P15735).
T1 construct: purchased Ambit Biosciences (scanMAXX KINOMEscan)
T1 sequence (P15735 1-406): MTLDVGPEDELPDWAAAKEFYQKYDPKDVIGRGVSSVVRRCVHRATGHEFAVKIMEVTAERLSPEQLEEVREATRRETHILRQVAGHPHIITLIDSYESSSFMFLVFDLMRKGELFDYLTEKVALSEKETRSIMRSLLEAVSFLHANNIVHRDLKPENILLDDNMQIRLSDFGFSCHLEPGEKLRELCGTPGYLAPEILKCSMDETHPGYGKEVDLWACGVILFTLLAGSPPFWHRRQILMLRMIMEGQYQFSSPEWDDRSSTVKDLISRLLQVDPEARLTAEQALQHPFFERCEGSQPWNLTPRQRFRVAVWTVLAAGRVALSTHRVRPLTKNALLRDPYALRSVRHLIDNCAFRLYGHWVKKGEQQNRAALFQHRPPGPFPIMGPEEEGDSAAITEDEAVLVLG
As to conditions: kinase PHKG2; for remaining activity at 1 µM: read-out: % of control at 1 µM.

Assay [2] has as its target T2, panel of 442 kinases (Homo sapiens, UniProt P24723).
T2 construct: purchased Ambit Biosciences (scanMAXX KINOMEscan)
To be noted: kinase PRKCH; for remaining activity at 1 µM: read-out: PRKCH (% of control at 1 µM).

For assay [3], the target named is T3, panel of 442 kinases (Homo sapiens, UniProt P45984).
T3 construct: purchased Ambit Biosciences (scanMAXX KINOMEscan)
T3 sequence (P45984 whole entry): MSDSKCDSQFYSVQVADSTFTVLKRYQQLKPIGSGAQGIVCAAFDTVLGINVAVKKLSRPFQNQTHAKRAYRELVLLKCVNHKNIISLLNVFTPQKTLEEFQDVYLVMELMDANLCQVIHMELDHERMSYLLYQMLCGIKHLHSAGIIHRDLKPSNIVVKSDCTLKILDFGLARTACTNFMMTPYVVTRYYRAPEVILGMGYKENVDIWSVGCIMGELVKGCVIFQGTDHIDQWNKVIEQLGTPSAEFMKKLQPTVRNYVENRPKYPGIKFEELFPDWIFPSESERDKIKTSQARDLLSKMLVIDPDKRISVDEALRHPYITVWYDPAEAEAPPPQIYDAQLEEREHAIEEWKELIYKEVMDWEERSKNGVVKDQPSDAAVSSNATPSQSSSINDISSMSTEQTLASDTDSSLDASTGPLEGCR
To be noted: kinase JNK2; for remaining activity at 1 µM: read-out: % of control at 1 µM.

Assay [4] has as its target T4, panel of 442 kinases (Homo sapiens, UniProt P57078).
T4 construct: purchased Ambit Biosciences (scanMAXX KINOMEscan)
T4 sequence (P57078 1-832): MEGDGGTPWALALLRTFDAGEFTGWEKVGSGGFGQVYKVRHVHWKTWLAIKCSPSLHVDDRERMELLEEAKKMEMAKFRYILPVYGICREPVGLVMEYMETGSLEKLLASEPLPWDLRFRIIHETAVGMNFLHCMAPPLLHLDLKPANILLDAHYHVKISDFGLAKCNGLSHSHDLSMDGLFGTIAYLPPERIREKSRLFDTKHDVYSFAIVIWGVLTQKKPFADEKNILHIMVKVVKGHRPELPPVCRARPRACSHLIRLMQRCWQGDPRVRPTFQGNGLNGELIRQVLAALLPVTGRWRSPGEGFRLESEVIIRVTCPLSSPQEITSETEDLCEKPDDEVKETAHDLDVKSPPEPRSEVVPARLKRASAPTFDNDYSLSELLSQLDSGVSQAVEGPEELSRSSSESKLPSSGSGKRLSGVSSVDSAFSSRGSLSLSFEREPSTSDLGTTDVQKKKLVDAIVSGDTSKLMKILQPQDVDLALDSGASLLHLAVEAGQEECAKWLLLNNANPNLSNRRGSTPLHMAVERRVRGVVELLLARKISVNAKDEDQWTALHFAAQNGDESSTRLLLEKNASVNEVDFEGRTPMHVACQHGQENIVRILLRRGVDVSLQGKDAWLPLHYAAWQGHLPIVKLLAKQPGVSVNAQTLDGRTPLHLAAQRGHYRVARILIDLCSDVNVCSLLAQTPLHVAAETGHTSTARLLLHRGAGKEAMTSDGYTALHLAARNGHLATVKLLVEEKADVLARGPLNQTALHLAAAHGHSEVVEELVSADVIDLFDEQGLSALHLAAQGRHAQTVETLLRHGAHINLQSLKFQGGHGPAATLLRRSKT
To be noted: kinase RIPK4; for remaining activity at 1 µM: read-out: RIPK4 (% of control at 1 µM).

Assay [5] concerns the target T5, panel of 442 kinases (Homo sapiens, UniProt Q00535).
T5 construct: purchased Ambit Biosciences (scanMAXX KINOMEscan)
As to conditions: CDK5; for remaining activity at 1 µM: read-out: % of control at 1 µM.

For assay [6], the target named is T6, panel of 442 kinases (Homo sapiens, UniProt Q7KZI7).
T6 construct: purchased Ambit Biosciences (scanMAXX KINOMEscan)
T6 sequence (Q7KZI7 whole entry): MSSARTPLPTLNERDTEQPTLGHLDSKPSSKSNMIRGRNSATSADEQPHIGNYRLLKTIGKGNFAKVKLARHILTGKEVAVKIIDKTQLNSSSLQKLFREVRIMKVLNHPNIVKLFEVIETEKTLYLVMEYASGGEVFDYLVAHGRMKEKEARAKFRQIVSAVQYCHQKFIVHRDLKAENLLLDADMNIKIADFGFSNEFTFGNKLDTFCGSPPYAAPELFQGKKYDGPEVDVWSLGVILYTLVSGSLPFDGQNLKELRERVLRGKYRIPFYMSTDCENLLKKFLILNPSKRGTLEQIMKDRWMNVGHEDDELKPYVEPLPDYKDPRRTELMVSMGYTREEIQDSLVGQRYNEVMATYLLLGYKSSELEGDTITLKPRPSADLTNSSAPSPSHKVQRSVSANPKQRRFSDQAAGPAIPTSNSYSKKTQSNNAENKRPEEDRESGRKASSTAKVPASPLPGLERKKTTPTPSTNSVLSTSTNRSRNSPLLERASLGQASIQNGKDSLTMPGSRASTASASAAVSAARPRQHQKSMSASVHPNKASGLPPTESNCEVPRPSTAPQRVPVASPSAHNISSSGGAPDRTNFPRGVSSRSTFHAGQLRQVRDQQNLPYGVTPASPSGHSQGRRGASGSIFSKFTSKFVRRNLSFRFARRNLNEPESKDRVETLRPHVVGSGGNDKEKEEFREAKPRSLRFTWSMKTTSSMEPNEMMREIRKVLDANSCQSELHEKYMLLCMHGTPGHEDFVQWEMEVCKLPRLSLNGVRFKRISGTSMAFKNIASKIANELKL
As to conditions: kinase MARK2; for remaining activity at 1 µM: read-out: % of control at 1 µM.

The target of assay [7] is T7, panel of 442 kinases (Homo sapiens, UniProt Q9BRS2).
T7 construct: purchased Ambit Biosciences (scanMAXX KINOMEscan)
T7 sequence (Q9BRS2 1-568): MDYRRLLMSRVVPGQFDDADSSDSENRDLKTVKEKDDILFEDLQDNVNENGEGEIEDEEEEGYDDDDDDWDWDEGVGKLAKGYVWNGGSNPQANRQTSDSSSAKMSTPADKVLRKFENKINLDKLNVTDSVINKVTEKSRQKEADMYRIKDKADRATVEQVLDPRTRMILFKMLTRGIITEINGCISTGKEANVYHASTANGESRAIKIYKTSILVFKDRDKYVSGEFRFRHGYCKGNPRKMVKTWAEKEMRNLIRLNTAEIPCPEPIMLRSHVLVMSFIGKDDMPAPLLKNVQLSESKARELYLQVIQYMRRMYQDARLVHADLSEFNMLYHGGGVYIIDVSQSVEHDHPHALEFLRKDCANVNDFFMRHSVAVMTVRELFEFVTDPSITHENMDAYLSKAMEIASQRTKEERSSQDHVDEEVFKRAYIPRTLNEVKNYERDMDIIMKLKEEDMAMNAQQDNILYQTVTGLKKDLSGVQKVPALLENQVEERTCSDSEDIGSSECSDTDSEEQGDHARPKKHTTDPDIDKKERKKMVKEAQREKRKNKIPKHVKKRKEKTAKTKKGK
To be noted: kinase RIOK1; for remaining activity at 1 µM: read-out: RIOK1 (% of control at 1 µM).

The target in assay [8] is T8, panel of 442 kinases (Homo sapiens, UniProt Q9Y463).
T8 construct: purchased Ambit Biosciences (scanMAXX KINOMEscan)
T8 sequence (Q9Y463 whole entry): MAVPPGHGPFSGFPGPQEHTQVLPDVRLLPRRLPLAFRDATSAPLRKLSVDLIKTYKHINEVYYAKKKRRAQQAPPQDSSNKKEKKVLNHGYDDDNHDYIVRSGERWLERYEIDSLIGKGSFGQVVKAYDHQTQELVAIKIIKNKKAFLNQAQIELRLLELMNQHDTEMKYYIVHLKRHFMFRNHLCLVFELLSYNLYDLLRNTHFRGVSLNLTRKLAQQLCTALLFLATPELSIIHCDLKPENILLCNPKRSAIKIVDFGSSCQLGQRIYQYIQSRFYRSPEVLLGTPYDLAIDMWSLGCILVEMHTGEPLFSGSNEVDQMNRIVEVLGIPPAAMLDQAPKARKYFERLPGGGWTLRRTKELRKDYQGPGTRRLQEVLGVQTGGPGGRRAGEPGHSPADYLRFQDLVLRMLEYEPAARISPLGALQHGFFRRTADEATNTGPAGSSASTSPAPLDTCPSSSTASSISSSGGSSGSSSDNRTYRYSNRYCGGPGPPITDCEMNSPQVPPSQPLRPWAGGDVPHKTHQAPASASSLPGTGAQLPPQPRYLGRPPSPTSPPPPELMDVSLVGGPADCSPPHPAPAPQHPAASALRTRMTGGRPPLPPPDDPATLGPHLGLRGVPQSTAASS
To be noted: DYRK1B; for remaining activity at 1 µM: read-out: % of control at 1 µM.

The mark [9] stands for this setting: 10 µM, read-out: % of control at 10 µM.

T2 sequence (P24723 whole entry): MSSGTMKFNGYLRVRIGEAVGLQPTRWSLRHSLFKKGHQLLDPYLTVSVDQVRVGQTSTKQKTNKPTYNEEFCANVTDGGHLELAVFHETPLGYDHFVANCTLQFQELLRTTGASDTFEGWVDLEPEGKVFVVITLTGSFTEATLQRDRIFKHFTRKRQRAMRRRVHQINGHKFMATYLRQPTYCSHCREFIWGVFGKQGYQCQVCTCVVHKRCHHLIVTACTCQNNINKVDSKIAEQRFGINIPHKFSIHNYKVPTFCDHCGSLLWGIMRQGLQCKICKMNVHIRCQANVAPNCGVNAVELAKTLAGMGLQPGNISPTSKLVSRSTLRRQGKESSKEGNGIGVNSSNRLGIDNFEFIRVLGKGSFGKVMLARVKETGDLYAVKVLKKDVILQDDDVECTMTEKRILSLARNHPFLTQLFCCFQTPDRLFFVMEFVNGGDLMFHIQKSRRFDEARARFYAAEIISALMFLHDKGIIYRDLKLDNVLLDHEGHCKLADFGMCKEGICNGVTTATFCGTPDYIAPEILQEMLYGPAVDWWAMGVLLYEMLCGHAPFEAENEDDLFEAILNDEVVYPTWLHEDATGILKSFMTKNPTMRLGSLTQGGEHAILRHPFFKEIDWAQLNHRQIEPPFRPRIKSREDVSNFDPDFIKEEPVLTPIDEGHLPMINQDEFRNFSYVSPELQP
T5 sequence (Q00535 whole entry): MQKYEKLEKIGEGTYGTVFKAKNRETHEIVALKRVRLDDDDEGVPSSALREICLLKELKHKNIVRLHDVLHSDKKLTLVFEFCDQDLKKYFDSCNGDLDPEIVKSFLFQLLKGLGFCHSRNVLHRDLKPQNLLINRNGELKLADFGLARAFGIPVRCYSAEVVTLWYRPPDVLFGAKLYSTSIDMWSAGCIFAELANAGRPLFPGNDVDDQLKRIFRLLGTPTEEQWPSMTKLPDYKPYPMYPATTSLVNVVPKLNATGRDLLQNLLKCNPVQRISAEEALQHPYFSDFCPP

Regarding `Nc1cc(C(F)(F)F)c(-c2cc(N3CCOCC3)nc(N3CCOCC3)n2)cn1` [Buparlisib], the remaining activity at 1 µM in assay [1] is 100%; in assay [2], 99%; in assay [3], 100%; in assay [4] it was 82%; in assay [5] it was 100%; in assay [6], 100%. For the same compound, the figures for the remaining activity at 1 µM in assay [7] and in assay [8] were 89% and 86%, respectively. Moreover, the remaining activity at 10 µM is 100% in assay [1] (setting [9]); 100% in assay [2] (10 µM, read-out: PRKCH (% of control at 10 µM)); 100% in assay [3] (setting [9]); 88% in assay [4] (10 µM, read-out: RIPK4 (% of control at 10 µM)); 99% in assay [5] (setting [9]); 71% in assay [6] (setting [9]). Besides, the remaining activity at 10 µM in assay [7] (10 µM, read-out: RIOK1 (% of control at 10 µM)) was 81%; in assay [8] (setting [9]), 100%.

Take `Cn1c(=O)n(-c2ccc(C(C)(C)C#N)cc2)c2c3cc(-c4cnc5ccccc5c4)ccc3ncc21` [Dactolisib, 2-methyl-2-[4-(3-methyl-2-oxo-8-quinolin-3-yl-2,3-dihydroimidazo[4,5-c]quinolin-1-yl)-phenyl] propionitrile]: the remaining activity at 1 µM in assay [1] turned out to be 100%; in assay [2], 78%; in assay [3], 100%; in assay [4] it was 57%; in assay [5], 100%; in assay [6], 65%. Further, the values for the remaining activity at 1 µM in assay [7] and in assay [8] were 66% and 93%, respectively.

As for `FC(F)c1nc2ccccc2n1-c1nc(N2CCOCC2)nc(N2CCOCC2)n1` [ZSTK474, 2-(difluoromethyl)-1-[4,6-di(4-morpholinyl)-1,3,5-triazin-2-yl]-1H-benzimidazole], the remaining activity at 1 µM in assay [1] was found to be 100%; in assay [2] it was 98%; in assay [3], 100%; in assay [4], 77%; in assay [5], 100%; in assay [6], 57%. Moreover, the results for the remaining activity at 1 µM in assay [7] and in assay [8] were 84% and 97%, respectively.

Turning to `COc1ncc(-c2ccc3nccc(-c4ccnnc4)c3c2)cc1NS(=O)(=O)c1ccc(F)cc1F` [Omipalisib], the remaining activity at 1 µM was found to be 100% in assay [1]; 100% in assay [2]; 100% in assay [3]; 70% in assay [4]; 100% in assay [5]; 100% in assay [6]. For the same compound, the remaining activity at 1 µM in assay [7] stood at 100%; in assay [8] it was 88%.
